Measured values as given in US20150250824A1, “METHODS AND COMPOSITIONS FOR EXPANSION OF STEM CELLS AND OTHER CELLS” (The Research Foundation For The State University Of New York, priority 2014, published 2015).
“Also recorded” adds a separate entry of the source. Like-named read-outs stand apart in the source and are kept apart here.

How the values were obtained:
CB CD34+ cells = system: CB CD34+ cells
Experimental: FIG. 24. […] On the right is a heat map illustrating the values of expression in terms of fold increase over controls. Green is indicative of up-regulation while red is down-regulation.
Cells were analyzed via Qiagen's PAHS-054Z hematopoiesis array containing 81 genes.

[1] = system: CD41+ cells sorted from cultured CB CD34+ cells
Experimental: FIG. 22. […] CB CD34+ cells were cultured with TPO, SCF, IL-3 for 7 days prior for CD41 selection by flow cytometry.
Cells were isolated for nestin (NSCs) and FLK-1 (hemangioblasts) before further differentiation. For cell sorting, cells were centrifuged for 5 minutes at 200 G at 4° C. and resuspended with 25 μl of CD41-FITC antibody for 30 minutes on ice. Cells are then washed gently with PBS and centrifuged for 5 minutes at 200 G at 4° C. Cells are then suspended at a concentration of 10^6 cells/ml of PBS containing 2% FBS. Cells are sorted via FACS Aria.
To test this issue and the extent of megakaryocytic population in response to the chemical induction, we cultured HUBC CD34^+ cells for 12-14 days in a media specific to megakaryocyte expansion (Nikougoftar Zarif, M., et al., Cell journal 13:173-178 (2011)). The cells were labeled with a conjugated CD41 antibody and sorted by flow cytometry sorting.

bone marrow CD34+ cells = system: bone marrow CD34+ cells
Experimental: 616452 (also called RepSox), was purchased separately from Biovision and Millipore. […] A fresh aliquot of the chemical was used at every media change and the final concentration in media is 10 μM.
(§1) Cells were centrifuged for 5 minutes at 200 G at 4° C. Cells were resuspended with CD34, 38 and/or 41 conjugated antibodies for 30 minutes on ice. Cells were then washed with 2 ml of PBS and centrifuged for 5 minutes at 200 G at 4° C. The final pellet was resuspended using 300 μl of 2% formalin.
Flow cytometry study was used to analyze the immunophenotype of cultured cells. As mature, large megakaryocytes may not be detectable by flow cytometry, bone marrow CD34+ cells were cultured for 4 days in order to detect younger, small megakaryocytes. […] However, flow analysis of megakaryocytes is known to be misleading due to the sheer size of the megakaryocytes, which can have a diameter ranging from 20 um to 120 um.

CD41− cells = conditions: same conditions as CD41+ cells
Experimental: CD41− cells were also cultured under the same conditions with the control being induced using TPO and DMSO.

[2] = system: CD34+ cells isolated from peripheral blood of G-CSF-mobilized donors; assay: Ex vivo culture of mobilized peripheral blood CD34+ cells with compounds, CD34/CD38 flow cytometry; format: cell-based, human; conditions: minimal cytokines
Experimental: CD34+ cells were isolated from cord blood or from peripheral blood of G-CSF-mobilized adult donors and cultured as follows. Mononuclear cells (MNCs) were isolated using a simple red blood cell lysis (15 minutes at room temperature using BD PharmLyse) or using Ficoll-Paque density gradient centrifugation (Jaatinen and Laine, Current Protocols Stem Cell Biol. 1:2A.1.1-2A.1.4. (2007)). The cells were then incubated with MACS CD34+ Microbead kit (Miltenyi Biotec, Auburn, Calif.) and run through a magnetic column resulting in selection for CD34+ cells. […] Human cortex neural stem cell (hcx NSC) cells were purchased from Millipore.
CD34+ cells were cultured in […] medium ([…] Technologies, Vancouver, BC, Canada) supplemented with 10% FBS, 100 ng/ml hSCF (human stem cell factor), 100 ng/ml hTPO (human thrombopoietin), 100 ng/ml hFLT-3 ligand (Human Fms-related Tyrosine Kinase 3) (Peprotech, Rocky Hill, N.J., USA) and 100 U/ml penicillin/streptomycin (Gibco). Human cortex Neural Progenitor Cell line (hcx NSC) was maintained in ReNcell medium: ReNcell NSC Maintenance medium (Millipore) supplemented with 20 ng/ml human EGF, 20 ng/ml human bFGF (Peprotech) and 100 U/ml penicillin/streptomycin. For expansion of cells targeted for cell sorting, we used the same media containing a different cytokine cocktail of 100 ng/ml SCF, TPO and 10 ng/ml IL-3.
as §1
CD34+ cells isolated from peripheral blood of G-CSF-mobilized donors were cultured for 11 days with minimal cytokines and the 4 chemical cocktail (C6FZ). […] The population bearing CD34+/CD38− is associated with long-term repopulating HSCs.
CD34+ cells isolated from the peripheral blood of G-CSF-mobilized donors were next cultured for 11 days with minimal cytokines and the individual compounds, C, 6, F and Z (FIG. 13).

[3] = system: CD34+ cells isolated from human umbilical CB; format: cell-based
Experimental: Megakaryocytes derived from CB in vitro are usually smaller than megakaryocytes derived from bone marrow or mobilized peripheral blood from adults. Small megakaryocyte size may contribute to delayed platelet engraftment when cord blood is used for bone marrow transplantation. To test whether 616452 is able to increase fetal/neonatal megakaryocyte size and ploidy, CD34+ cells isolated from human umbilical CB were cultured in StemSpan SFEM containing SCF, TPO and Flt-3 Ligand. CB CD34+ cells in the presence of TPO after 4 or 8 day culture, were morphologically consistent of a relative homogenous population of small cells (FIG. 19A) and megakaryocytic features such as large nuclear size and cytoplasmic mass were hardly detectable.
One of the unique characteristics of megakaryocytes is the ploidy development of their nuclei, which can be easily measured using propidium iodide (PI), a fluorescent intercalating agent that binds to nucleic acids. Megakaryocyte (Mk) ploidy correlates well with their maturation and platelet production. […] Out of 10,000 events, the control cells only elicited only 1 cell with a ploidy of 16N and nothing thereon greater (FIG. 20A).

C57BL/6J mice given 5-FU = system: C57BL/6J mice given 5-FU
Experimental: FIG. 25. […] Fifteen 8-week old mice were given IP injections of 5-FU (250 mg/kg) on day 0. Complete blood counts (CBCs) were done on day 2, 4, 6, 9, and 12. 616452 (10 mg/kg) was introduced via IP injections on day 5, 7 and 9. The above data is a representative sample of the overall experiment. Data values from day 4 are not included.
The inventors used C57BL/6J mice to administrate with SFU, a chemotherapy agent (150 mg/kg, intraperitoneal injection). Peripheral blood (100 ul each) from injected mice is collected for assessment of the peripheral blood count using a hematology analyzer.
616452 was introduced to eight of the mice at this point and was injected every other day for a total of three doses.

[4] = Giemsa-Wright staining (FIG. 19B)
[5] = greater dose vs 10 μM standard (FIG. 20B)

What does the source list for `Cc1cccc(-c2n[nH]cc2-c2ccc3ncccc3n2)n1` [compound 616452, 2-[3-(6-methyl-2-pyridinyl)-1H-pyrazol-4-yl]-1,5-naphthyridine]?
PF4 expression on day 4 compared to that on day 2 (CB CD34+ cells): more than 11 fold; genes down-regulated (CB CD34+ cells; day 2 of induction): one; genes down-regulated (CB CD34+ cells; day 4 of induction): four; time until cells began to increase their size [1]: ≤ 2 days; cells of 8N out of 10,000 events ([1]; 8 days of induction): 2018 cells; cells of 16N out of 10,000 events ([1]; 8 days of induction): 585 cells; cells of 32N or greater out of 10,000 events ([1]; 8 days of induction): 86 cells; fold increase in 8N ([1]; 8 days, vs DMSO control): 30 fold; fold increase in the number of 4N ([1]; 8 days, vs DMSO control): 4.5 fold; cells positive in CD41 live cell stain ([1]; after 8 days of induction): 95%; cluster size ([1]; around day 4): 5-15 cells; cluster size ([1]; by day 6): 25-50 cells; cells appearing large in size by eye ([1]; day 6): approximately 80%; highest ploidy reached ([1]; within 8 days of culture): ≤ 64N; fold increase of CD34+CD41+ cells (bone marrow CD34+ cells; 4 days culture, flow cytometry): 2 fold; average cell size (bone marrow CD34+ cells; [4]): around 50 um; cell size, largest (bone marrow CD34+ cells; [4]): ≤ 90 μm; percentage of CD41 increased (bone marrow CD34+ cells; after 5 days of culture, 10 μM, N>3 experiments): 50-100%; increase in the CD41+ population (bone marrow CD34+ cells; within 4 days of culture, flow cytometry): ~100%; ploidy development (CD41− cells): slight increase in ploidy; expansion of CD34+ cells ([2]; 5 days, 10 μM): rapidly expanded the CD34+ cells; effect on CD34+CD38+ and CD34+CD38− populations ([2]; 11 days, C, 6, F at 10 μM, Z at 100 nM, listed as 6): best effect enhancing both CD34+CD38- and CD34+ and CD38+ positive cells; also recorded: ability to enhance both the population of single positive (CD34+CD38−) and double positive (CD34+CD38+) cells; also recorded: the most effects on the CD34+CD38− population; cluster formation at high concentrations [3]: no clusters in 4× concentrations or higher; culture composition by 8 days [3]: predominately composed of megakaryocytes; change in number of 8N, 16N and 32N cells between 8 and 12 days of induction ([3]; 10 μM): nearly doubled; days of culture until appearance of large megakaryocyte-like cells ([3]; 10 μM): 4 days; growth of the cells relative to control ([3]; 10 μM (1×)): 25-50%; megakaryocytic features (large nuclear size, cytoplasmic mass) ([3]; 4 or 8 day culture with TPO): megakaryocytes with these features were easily observed; increase of CD41 expression compared to control ([3]; 4 days induction, flow cytometry): 27%; number of cells with greater ploidy ([3]; 8 days induction): drastically increased number of cells with greater ploidy; cells of 16N ploidy out of 10,000 events ([3]; 8 days induction, PI staining): over 100 cells; CD34+CD41+ population ([3]; flow analysis (FIG. 19C)): an increase in the CD34^+ CD41^+ population; increase of the CD41+ population ([3]; flow analysis, 5 days induction (FIG. 19C)): 25-40%; fold increase over the standard in 8N cells [3, 5]: 1.68 fold; fold increase over the standard in 16N cells [3, 5]: 2.5 fold; fold increase over the standard in 32N cells [3, 5]: 6 fold; cell death ([3]; human, 48 h, 100 μM): all the cells died within 48 hours; fold increase of 4N cells over control ([3]; time dependence study): 5 fold; fold increase of 8N cells over control ([3]; time dependence study): 30 fold; fold increase of 16N cells over control ([3]; time dependence study): 80 fold; platelet counts by day 12 (C57BL/6J mice given 5-FU; 10 mg/kg every other day, three doses, after 5-FU): almost twice as many platelets as normal mice; white blood cell count (C57BL/6J mice given 5-FU; chemotherapy treated mice): significant improvement or recovery of the white blood cell count; platelet counts in mice not given 5-FU (C57BL/6J mice given 5-FU; mouse, in vivo): little to no change
